Molecules are shown by their SMILES. Where a name gives a salt, the structure may show the parent alone.

`CCC(CC)(NC(=O)c1c(C)nn2c1NC(c1cccc(F)c1)CC2(C)C)c1ccc(C)cc1` (centres unmarked) (as salt: HCl) [Example 972, N-(1-ethyl-1-(4-methylphenyl)propyl)-5-(3-fluorophenyl)-2,7,7-trimethyl-4,5,6,7-tetrahydropyrazolo[1,5-a]pyrimidine-3-carboxamide]: the melting point was in the range of 152 to 155 °C.

Compound `CCc1ccc(C(CC)(CC)NC(=O)c2cnn3c2N[C@@H](c2ccccc2)CC3(C)C)cc1` (as salt: HCl) [Example 1051, (5R)-N-(1-ethyl-1-(4-ethylphenyl)propyl)-7,7-dimethyl-5-phenyl-4,5,6,7-tetrahydropyrazolo[1,5-a]pyrimidine-3-carboxamide] returned a melting point of 149 to 150 °C.

Turning to `CCC(CC)(c1ccc(C)cc1)c1nnc(-c2c(C)nn3c2N[C@@H](c2ccccc2)CC3(C)C)s1` [Example 1143, (5R)-3-(5-(1-ethyl-1-(4-methylphenyl)propyl)-1,3,4-thiadiazol-2-yl)-2,7,7-trimethyl-5-phenyl-4,5,6,7-tetrahydropyrazolo[1,5-a]pyrimidine], the melting point was 132 to 134 °C.

Compound `O=C(On1nnc2ccccc21)c1cnn2c1N[C@H](c1ccccc1)C[C@@H]2C(F)(F)F` (stereo in doubt) [Example 372, 1-(((5-phenyl-7-(trifluoromethyl)-4,5,6,7-tetrahydropyrazolo[1,5-a]pyrimidin-3-yl)carbonyl)oxy)-1H-1,2,3-benzotriazole] came in with a melting point of 216 to 217 °C.

The compound `CCC(CC)(NC(=O)c1cnn2c1NC(c1ccccc1)CC2(C)C)c1cccc(Br)c1` (centres unmarked) [Example 613, N-(1-(3-bromophenyl)-1-ethylpropyl)-7,7-dimethyl-5-phenyl-4,5,6,7-tetrahydropyrazolo[1,5-a]pyrimidine-3-carboxamide] gave a melting point of 195 to 196 °C.

In turn, `CCC(CC)(NC(=O)c1c(C)nn2c1NC(c1ccc(F)cc1)CC2(C)C)c1ccc(C)cc1` (centres unmarked) (as salt: HCl) [Example 971, N-(1-ethyl-1-(4-methylphenyl)propyl)-5-(4-fluorophenyl)-2,7,7-trimethyl-4,5,6,7-tetrahydropyrazolo[1,5-a]pyrimidine-3-carboxamide] gave a melting point of 166 to 169 °C.

`CCCC1(NC(=O)c2cnn3c2NC(c2ccccc2)CC3(C)C)CCCCC1` (centres unmarked) [Example 619, 7,7-dimethyl-5-phenyl-N-(1-propylcyclohexyl)-4,5,6,7-tetrahydropyrazolo[1,5-a]pyrimidine-3-carboxamide] showed a melting point of 152 to 153 °C.

`CCC(CC)(NC(=O)c1cnn2c1NC(c1ccccc1)CC2(C)C)c1ccc(CCC(=O)OC(C)C)cc1` (centres unmarked) (as salt: HCl) [Example 816, isopropyl 3-(4-(1-(((7,7-dimethyl-5-phenyl-4,5,6,7-tetrahydropyrazolo[1,5-a]pyrimidin-3-yl)carbonyl)amino)-1-ethyl-propyl)phenyl)propanoate] returned a melting point of 150 to 151 °C.

`CCC(CC)(NC(=O)c1cnn2c1NC(c1ccccc1)CC2C(F)(F)F)c1ccc(Br)cc1` (centres unmarked) [Example 397, N-(1-(4-bromophenyl)-1-ethylpropyl)-5-phenyl-7-(trifluoromethyl)-4,5,6,7-tetrahydropyrazolo[1,5-a]pyrimidine-3-carboxamide] registered a melting point of 180 to 181 °C.

Turning to `Cc1ccc(C(C)(C)NC(=O)c2cnn3c2NC(c2ccccc2)CC3(C)C)cc1` (centres unmarked) (as salt: HCl) [Example 793, 7,7-dimethyl-N-(1-methyl-1-(4-methylphenyl)ethyl)-5-phenyl-4,5,6,7-tetrahydropyrazolo[1,5-a]pyrimidine-3-carboxamide], the melting point fell in the range of 150 to 151 °C.

Take `CCC(CC)(NC(=O)c1cnn2c1NC(c1ccccc1)CC2(C)C)c1ccc(CCC(=O)O)cc1` (centres unmarked) [Example 749, 3-(4-(1-(((7,7-dimethyl-5-phenyl-4,5,6,7-tetrahydropyrazolo[1,5-a]pyrimidin-3-yl)carbonyl)amino)-1-ethyl-propyl)phenyl)propanoic acid]: the melting point lay in the range of 240 to 241 °C.

As for `CCC1(CC)C[C@@H](OCc2ccccc2)CN1C(=O)c1cnn2c1N[C@H](c1ccccc1)CC2(C)C` [Example 1105, (5S)-3-(((4R)-4-(benzyloxy)-2,2-diethyl-1-pyrrolidinyl)carbonyl)-7,7-dimethyl-5-phenyl-4,5,6,7-tetrahydropyrazolo[1,5-a]pyrimidine], the melting point fell in the range of 172 to 174 °C.

Take `C#CC1(NC(=O)c2cnn3c2NC(c2ccccc2)CC3(C)C)CCCCC1` (centres unmarked) [Example 587, N-(1-ethynylcyclohexyl)-7,7-dimethyl-5-phenyl-4,5,6,7-tetrahydropyrazolo[1,5-a]pyrimidine-3-carboxamide]: the melting point lay in the range of 201 to 202 °C.

`CCC(CC)(NC(=O)c1cnn2c1NC(c1ncc(C)s1)CC2(C)C)c1ccc(F)cc1` (centres unmarked) [Example 602, N-(1-ethyl-1-(4-fluorophenyl)propyl)-7,7-dimethyl-5-(5-methyl-1,3-thiazol-2-yl)-4,5,6,7-tetrahydropyrazolo[1,5-a]pyrimidine-3-carboxamide] registered a melting point of 163.5 to 163.6 °C.

As to `CCC(CC)(CCC(F)(F)F)NC(=O)c1cnn2c1NC(c1ccccc1)CC2(C)C` (centres unmarked) [Example 698, N-(1,1-diethyl-4,4,4-trifluorobutyl)-7,7-dimethyl-5-phenyl-4,5,6,7-tetrahydropyrazolo[1,5-a]pyrimidine-3-carboxamide], the melting point is 84 to 85 °C.

In the case of `CC1(C)CC(c2ccccc2)Nc2c(C(=O)NC3(C#N)CCCCC3)cnn21` (centres unmarked) [Example 627, N-(1-cyanocyclohexyl)-7,7-dimethyl-5-phenyl-4,5,6,7-tetrahydropyrazolo[1,5-a]pyrimidine-3-carboxamide], the melting point was > 300 °C.

`CCC1(NC(=O)c2cnn3c2NC(c2ccccc2)CC3(C)C)CCCCC1` (centres unmarked) [Example 431, N-(1-ethylcyclohexyl)-7,7-dimethyl-5-phenyl-4,5,6,7-tetrahydropyrazolo[1,5-a]pyrimidine-3-carboxamide] came in with a melting point of 166 to 167 °C.

The compound `COc1ccccc1C1CC(C(F)(F)F)n2ncc(C(=O)NC34CC5CC(CC(C5)C3)C4)c2N1` (centres unmarked) [Example 279, N-(1-adamantyl)-5-(2-methoxyphenyl)-7-(trifluoromethyl)-4,5,6,7-tetrahydropyrazolo[1,5-a]pyrimidine-3-carboxamide] displayed a melting point of 238 to 239 °C.

`CCC1(NC(=O)c2cnn3c2NC(c2ccccc2)CC3(C)C)CCC(C)CC1` (centres unmarked) [Example 612, N-(1-ethyl-4-methylcyclohexyl)-7,7-dimethyl-5-phenyl-4,5,6,7-tetrahydropyrazolo[1,5-a]pyrimidine-3-carboxamide]: the melting point lay within 160 to 161 °C.

`Cc1ccc(-n2cc3c(n2)CCN(C(=O)c2cnn4c2NC(c2ccccc2)CC4C(F)(F)F)C3)cc1` (centres unmarked) [Example 276, 2-(4-methylphenyl)-5-((5-phenyl-7-(trifluoromethyl)-4,5,6,7-tetrahydropyrazolo[1,5-a]pyrimidin-3-yl)carbonyl)-4,5,6,7-tetrahydro-2H-pyrazolo[4,3-c]pyridine] gave a melting point of 167 to 168 °C.

For the compound `CC1(C)C[C@@H](c2ccccc2)Nc2c(C(=O)NC34CC5CC(CC(C5)C3)C4)cnn21` [Example 1029, (5S)-N-1-adamantyl-7,7-dimethyl-5-phenyl-4,5,6,7-tetrahydropyrazolo[1,5-a]pyrimidine-3-carboxamide], the melting point was in the range of 226 to 227 °C.

`O=C(NC12CC3CC(CC(C3)C1)C2)c1cnn2c1NC(c1ccccc1)CC21CCCC1` (centres unmarked) [Example 183, N-(1-adamantyl)-5′-phenyl-5′,6′-dihydro-4′H-spiro[cyclopentane-1,7′-pyrazolo[1,5-a]pyrimidine]-3′-carboxamide] registered a melting point of 259 to 261 °C.

For the compound `CCC1(CC)C[C@@H](O)CN1C(=O)c1c(C)nn2c1N[C@@H](c1ccccc1)CC2(C)C` [Example 1097, (3R)-5,5-diethyl-1-(((5R)-2,7,7-trimethyl-5-phenyl-4,5,6,7-tetrahydropyrazolo[1,5-a]pyrimidin-3-yl)carbonyl)-3-pyrrolidinol], the melting point fell in the range of 162 to 164 °C.

`CCC1(CC)C[C@@H](OC)CN1C(=O)c1cnn2c1N[C@@H](c1ccccc1)CC2(C)C` [Example 1111, (5R)-3-(((4R)-2,2-diethyl-4-methoxy-1-pyrrolidinyl)carbonyl)-7,7-dimethyl-5-phenyl-4,5,6,7-tetrahydropyrazolo[1,5-a]pyrimidine] displayed a melting point of 148 to 150 °C.

The compound `CC1(C)CC(c2ccccc2)Nc2c(C(=O)NC(C3CCCCC3)C3CCCCC3)cnn21` (centres unmarked) [Example 433, N-(dicyclohexylmethyl)-7,7-dimethyl-5-phenyl-4,5,6,7-tetrahydropyrazolo[1,5-a]pyrimidine-3-carboxamide] returned a melting point of 187 to 188 °C.

Turning to `CC(C)(NC(=O)c1cnn2c1NC(c1ccccc1)CC2C(F)(F)F)c1cccc2ccccc12` (centres unmarked) [Example 368, N-(1-methyl-1-(1-naphthyl)ethyl)-5-phenyl-7-(trifluoromethyl)-4,5,6,7-tetrahydropyrazolo[1,5-a]pyrimidine-3-carboxamide], the melting point lay within 221 to 222 °C.

In turn, `CCC(CC)(NC(=O)c1cnn2c1NC(c1ccccc1)CC2C(F)(F)F)c1ccccc1` (centres unmarked) [Example 396, N-(1-ethyl-1-phenylpropyl)-5-phenyl-7-(trifluoromethyl)-4,5,6,7-tetrahydropyrazolo[1,5-a]pyrimidine-3-carboxamide] yielded a melting point of 165 to 166 °C.

`CCC(CC)(NC(=O)c1cnn2c1NC(c1ccccc1)CC2(C)C)c1ccc(SC)cc1` (centres unmarked) [Example 832, N-(1-ethyl-1-(4-(methylthio)phenyl)propyl)-7,7-dimethyl-5-phenyl-4,5,6,7-tetrahydropyrazolo[1,5-a]pyrimidine-3-carboxamide] came in with a melting point of 177 to 178 °C.

Compound `CCC(CC)(NC(=O)c1c(C)nn2c1NC(c1ccc(OC)cc1)CC2(C)C)c1ccc(C)cc1` (centres unmarked) (as salt: HCl) [Example 967, N-(1-ethyl-1-(4-methylphenyl)propyl)-5-(4-methoxyphenyl)-2,7,7-trimethyl-4,5,6,7-tetrahydropyrazolo[1,5-a]pyrimidine-3-carboxamide] registered a melting point of 153 to 154 °C.

As usually defined, the melting point is the temperature, or range, at which the solid turns liquid.

Source of the values: patent publication US9447100B2, “Substituted pyrazolo[1,5-A] pyrimidines as calcium receptor modulating agents” (Takeda Pharmaceutical Company Limited, priority 2002, dated 2016).
